Tests used:
NMRI mice = assay: Inhibition of catalepsy generated by haloperidol (45° inclined grid); assay type: in vivo
Experimental: Experiments were elaborated on 20-25 g weight NMRI mice. Groups of 10 mice were treated intraperitoneally with 15 mg/kg of haloperidol and carrier agent. Deramciclane (and carriers) were administered orally in different doses 60 minutes later. After a subsequent 60 minutes period mice were placed to a grid which has an inclination angle of 45°. In case of the animals were motionless for more than 30 seconds on the grid the events were seen as catalepsy. The procedure was repeated in every 30 minutes for 3 hours.
The effects are shown by percentage of changes compared to control group.

Dopamine D2 = Dopamine D2 (Homo sapiens, UniProt P14416); conditions: read-out: Receptor Affinity (Ki); cited from earlier work
Chain of Dopamine D2 (P14416 whole entry): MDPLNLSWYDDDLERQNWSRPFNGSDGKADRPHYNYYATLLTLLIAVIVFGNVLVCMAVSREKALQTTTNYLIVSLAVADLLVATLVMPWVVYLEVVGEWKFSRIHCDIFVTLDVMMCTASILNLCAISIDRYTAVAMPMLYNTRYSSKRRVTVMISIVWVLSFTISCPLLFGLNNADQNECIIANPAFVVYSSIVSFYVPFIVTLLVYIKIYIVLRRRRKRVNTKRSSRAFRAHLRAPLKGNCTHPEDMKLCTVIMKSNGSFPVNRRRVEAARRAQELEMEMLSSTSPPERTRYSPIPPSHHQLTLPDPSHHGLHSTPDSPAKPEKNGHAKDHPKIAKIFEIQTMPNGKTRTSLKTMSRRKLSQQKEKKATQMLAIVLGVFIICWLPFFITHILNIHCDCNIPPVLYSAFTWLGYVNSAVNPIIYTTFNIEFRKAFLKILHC

5-HT2A = 5-HT2A (Homo sapiens, UniProt P28223); conditions: read-out: Receptor Affinity (Ki); cited from earlier work
Chain of 5-HT2A (P28223 whole entry, species assumed): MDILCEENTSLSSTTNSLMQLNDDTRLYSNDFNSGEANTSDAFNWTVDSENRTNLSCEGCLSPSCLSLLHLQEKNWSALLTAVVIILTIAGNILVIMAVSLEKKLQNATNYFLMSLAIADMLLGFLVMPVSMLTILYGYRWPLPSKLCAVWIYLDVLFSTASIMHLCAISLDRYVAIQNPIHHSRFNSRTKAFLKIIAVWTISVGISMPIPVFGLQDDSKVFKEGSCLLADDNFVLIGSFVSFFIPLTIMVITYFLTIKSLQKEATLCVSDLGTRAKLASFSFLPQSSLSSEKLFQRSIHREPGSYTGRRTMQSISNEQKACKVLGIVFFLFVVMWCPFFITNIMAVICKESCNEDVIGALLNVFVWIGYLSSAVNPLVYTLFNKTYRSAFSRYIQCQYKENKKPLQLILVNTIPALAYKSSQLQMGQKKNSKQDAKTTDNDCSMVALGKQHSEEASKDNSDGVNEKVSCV

5-HT2C = 5-HT2C (Homo sapiens, UniProt P28335); conditions: read-out: Receptor Affinity (Ki); cited from earlier work
Chain of 5-HT2C (P28335 33-458, species assumed): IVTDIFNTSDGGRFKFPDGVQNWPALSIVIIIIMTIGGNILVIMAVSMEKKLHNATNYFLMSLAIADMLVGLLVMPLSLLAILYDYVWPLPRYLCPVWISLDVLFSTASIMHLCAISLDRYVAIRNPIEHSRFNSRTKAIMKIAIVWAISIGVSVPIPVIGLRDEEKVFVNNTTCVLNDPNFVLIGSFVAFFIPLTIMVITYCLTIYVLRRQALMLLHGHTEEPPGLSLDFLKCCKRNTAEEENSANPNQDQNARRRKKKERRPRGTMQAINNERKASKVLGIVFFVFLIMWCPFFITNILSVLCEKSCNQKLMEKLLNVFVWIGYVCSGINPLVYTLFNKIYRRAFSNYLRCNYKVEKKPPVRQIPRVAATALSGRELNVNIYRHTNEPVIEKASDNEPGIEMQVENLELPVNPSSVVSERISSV

[1] = deramciclane alone; cited from earlier work

| Compound | Catalepsy (average ± SE)/10 animals (NMRI mice; deramciclane 20 mg/kg po. + haloperidol 15 mg/kg ip., p < 0.05 vs haloperidol) | Catalepsy (average ± SE)/10 animals (NMRI mice; deramciclane 40 mg/kg po. + haloperidol 15 mg/kg ip., p < 0.05 vs haloperidol) | Catalepsy (average ± SE)/10 animals (NMRI mice; deramciclane 80 mg/kg po. + haloperidol 15 mg/kg ip., p < 0.05 vs haloperidol) | Inhibition of catalepsy generated by haloperidol (in words) (NMRI mice; deramciclane 20-80 mg/kg po., haloperidol 15 mg/kg ip.) | Ki (Dopamine D2) | Ki (5-HT2A) | Ki (5-HT2C) | Catalepsy caused by the compound by itself (in words) [1] | Catalepsy (average ± SE)/10 animals (NMRI mice; haloperidol 15 mg/kg ip. alone (plus carrier)) |
| --- | --- | --- | --- | --- | --- | --- | --- | --- | --- |
| CN(C)CCO[C@]1(c2ccccc2)C[C@H]2CC[C@]1(C)C2(C)C [Deramciclane, (1R,2S,4R)-(−)-2-[N,N-(dimethylamino-ethoxy)]-2-phenyl-1,7,7-trimethyl-biciklo[2.2.1]heptane] | 6.5 ± 0.7 /10 animals | 4.7 ± 1.3 /10 animals | 3.5 ± 1.5 /10 animals | inhibits the catalepsy generated by haloperidol in a dose dependent way | 113 nM | 11 nM | 27 nM | does not cause catalepsy by itself |  |
| O=C(CCCN1CCC(O)(c2ccc(Cl)cc2)CC1)c1ccc(F)cc1 [Haloperoidol, haloperidol, reference compound] |  |  |  |  |  |  |  |  | 9.3 ± 0.4 /10 animals |

Reference: patent US20090124606A1, “Composition for Treatment of Psychosis” (priority 2005, published 2009)
